Values of other authors, collected in PMC12087591 (Drug Design, Development and Therapy, 2025).

System: COVID-19
Conditions: unvaccinated COVID-19 patients

Structure (SMILES): CC(C)(C)[C@H](NC(=O)C(F)(F)F)C(=O)N1C[C@H]2[C@@H]([C@H]1C(=O)N[C@H](C#N)C[C@@H]1CCNC1=O)C2(C)C [nirmatrelvir]
- reduction of hospitalization risk: 89%
